Test results reported in patent US10813868B2, “Method of improving hair volume” (priority 2014, dated 2020).

Tests used:
[1] = Hair switch volume test (switches dosed, combed straight, dried overnight, image projection measured); details: for % benefit: 2% solution; for Volume: same batch of switches, 0.2 ml of 2% solution; for Volume / volume (projection of the switch image on to the screen): combed straight, dried overnight; for volume (projection of the switch image on to the screen): 0.2 ml of 2% solution per 2 g switch
Experimental: Dark brown European wavy #6 switches (from 2 different batches) of length 25 cm and weight 2 g were dosed with 0.2 ml each of 2% glucosamine.HCl salt solution. Control switches were wetted with water. All switches were combed straight and left to dry overnight. When dry the switches were combed straight and pictures taken. […] (Here volume refers to the projection of the switch image on to the screen and is given in mm^2).
Dark brown European wavy #6 switches of length 25 cm and weight 2 gms (from the same batch of switches), were dosed with 0.2 ml each of 2% solutions of various mono and diglucosamine salts. Control switches were treated with water.
All switches were combed straight and left to dry overnight.
When dry the switches were combed straight and pictures taken. […] (Here volume refers to the projection of the switch image on to the screen and is given in mm^2). The percentage benefit (i.e. increase in volume) with respect to control (water) is also given.

[2] = Half head test on a mannequin head, styled with a blow dryer; details: 2% solution on left half vs water on right half; picture the day following styling
Experimental: FIG. 1 is an image of a mannequin head taken the day following a test performed with one half (right hand side) treated with water and the other half (left hand side) treated with 2% glucosamine.HCI salt solution and followed by styling with a blow dryer. A half head test on a mannequin head was performed with one half (right hand side) treated with water and the other half (left hand side) treated with 2% glucosamine.HCl salt solution. The head was styled with a blow dryer for volume up benefit. FIG. 1 is a picture taken the day following the styling.

[3] = Example 2, increase in volume with respect to control (water)

| Compound | % benefit [1, 3] [%] | Volume ([1]; Example 2) [mm^2] | further results |
| --- | --- | --- | --- |
| glucosamine 2-pyrrolidone-5-carboxylate [glucosamine PCA] | 37.5 | 19505 | – |
| diglucosamine glutamate | 38.0 | 19575 | – |
| diglucosamine fumarate | 38.0 | 19575 | – |
| N[C@H]1C(O)O[C@H](CO)[C@@H](O)[C@@H]1O.O=C(O)/C=C\C(=O)O (some centres unmarked) [glucosamine maleate] | 30.1 | 18450 | – |
| glucosamine nicotinate | 41.6 | 20087 | – |
| glucosamine pimelate | 13.4 | 16088 | – |
| Cl.N[C@H]1C(O)O[C@H](CO)[C@@H](O)[C@@H]1O (some centres unmarked) [glucosamine•HCl, glucosamine hydrochloride] | – | – | volumising benefit (visual comparison) [2]: clearly evident; volume (projection of the switch image on to the screen) ([1]; Batch 1 switches): 14236 mm^2; % benefit ([1]; Batch 1 switches, increase in volume vs water control): 6.7%; volume (projection of the switch image on to the screen) ([1]; Batch 2 switches): 16851 mm^2; % benefit ([1]; Batch 2 switches, increase in volume vs water control): 7.3% |
| diglucosamine adipate | 28.3 | 18189 | – |
| N[C@H]1C(O)O[C@H](CO)[C@@H](O)[C@@H]1O.O=C(O)CC(=O)O (some centres unmarked) [glucosamine malonate] | 21.6 | 17244 | – |
| diglucosamine glutarate | 35.6 | 19234 | – |
| glucosamine glutamate | 30.9 | 18563 | – |
| N[C@H]1C(O)O[C@H](CO)[C@@H](O)[C@@H]1O.O=C(O)/C=C/C(=O)O (some centres unmarked) [glucosamine fumarate] | 18.5 | 16802 | – |
| diglucosamine succinate | 20.8 | 17136 | – |
| diglucosamine pimelate | 27.1 | 18021 | – |
| diglucosamine malonate | 34.3 | 19053 | – |
| glucosamine aspartate | 30.9 | 18566 | – |
| diglucosamine maleate | 34.3 | 19053 | – |
| N[C@H]1C(O)O[C@H](CO)[C@@H](O)[C@@H]1O.O=C(O)CCC(=O)O (some centres unmarked) [glucosamine succinate] | 13.5 | 16102 | – |
| diglucosamine aspartate | 39.5 | 19780 | – |
| CC(O)C(=O)O.N[C@H]1C(O)O[C@H](CO)[C@@H](O)[C@@H]1O (some centres unmarked) [glucosamine lactate] | 33.6 | 18944 | – |
| NCC(=O)O.N[C@H]1C(O)O[C@H](CO)[C@@H](O)[C@@H]1O (some centres unmarked) [glucosamine glycinate] | 39.2 | 19748 | – |
| glucosamine glutarate | 9.1 | 15475 | – |
